For series [1], the system named is 8392B Nontarget Cell Line (hematopoietic). The experiment in a line: cells. Conditions: 2 h, read-out: Mean IC50 value.
The test system of series [2] is MV522 Target Cell Line (lung-derived adenocarcinoma). The experiment in a line: cells. Conditions: MV522, 2 h, read-out: Mean IC50 value.
For series [3] the test system is unchanged. Nature of the series: cells. Conditions: MV522, 48 h, read-out: Mean IC50 value.
Series [4] can be described thus: in vitro. Conditions: human. The text has this: (§1) MCF7 over express estrogen alpha-receptors.
(§2) MCF7 cells over express estrogen alpha-receptors.

Series [5] relates to MCF7 (ER positive). It is filed as cell-based. As to conditions: MCF7 (ER positive) versus HT29 (ER negative), result in words.
From the text: as §1, §2

For series [6], the system named is 8392B Nontarget Cell Line (hematopoietic). Nature of the series: cells. As to conditions: 48 h, read-out: Mean IC50 value.
Series [7] shares this test system. Conditions: read-out: Mean IC50 value, 48 hr exposure, ± SD, N = 3 unless otherwise indicated.
Series [8] has the same test system. As to conditions: read-out: Mean IC50 value, 2 hr exposure, ± SD, N = 3 unless otherwise indicated.
Series [9] deals with MV522 Target Cell Line (lung-derived adenocarcinoma).
Series [10] deals with NCI 60 cell line panel. Nature of the series: NCI DTP 60 cell line screen assay. As to conditions: for Mean LD50 cytotoxic: NCI DTP 60 cell line. The text has this: An ADC is engulfed by a tumor cell, transported to the endosomes (pH<6.0) and then into the lysozomes (pH<4). […] 4). Cancer cells can become resistant to various toxins and drugs through the development of what is termed multi-drug resistance. This process is known to occur through several different mechanisms.

Where two headings read alike, the source gives them in different places. *1 amine or outer side, *2 acyl side, *3 side chain or, on linkers, in order; H or OH if unused. Where a SMILES comes first, the peptide text is derived from it. [ ]: non-standard residue; d: D form. The star is where a group is joined. X2 = CC1=C(CCCN*)C2=C(C)C3(CC3)[C@@](C)(O)C(=O)C2=C1; Dolaproine = CO[C@@H]([C@@H]1CCCN1)[C@@H](C)C(=O)O; Dil = CC[C@H](C)[C@H](NC)[C@@H](CC(=O)O)OC; X1 = C[C@@H](N*)[C@@H](O)c1ccccc1; NMeV = CN[C@H](C(=O)O)C(C)C; Morpholide = C1CN(*)CCO1; CO = O=C([*:1])[*:2]

Usually IC50 stands for the concentration that gives 50% inhibition. `CC1=C(CCC(=O)Oc2ccc3c(c2)CCC2C3CC[C@]3(C)C(O)CCC23)C2=C(C)C3(CC3)[C@@](C)(O)C(=O)C2=C1` (some centres unmarked) [Analog 108]: the half-inhibitory concentration (IC50) in series [1] was above 55 µM; in series [2], 12.3 ± 2.3 µM; in series [3] it was 0.52 ± 0.05 µM; in series [4] it was above 55 µM.

As for `CC1=C(CCC(=O)Oc2ccc3c(c2)CCC2C3CC[C@]3(C)C(=O)CCC23)C2=C(C)C3(CC3)[C@@](C)(O)C(=O)C2=C1` (some centres unmarked) [Analog 110], the half-inhibitory concentration (IC50) was above 55 µM in series [1], above 55 µM in [2], above 19 µM in series [4] and 25.3 ± 2.1 µM in [6]. Moreover, the “preferential killing of ER positive cells” value in [5] is recorded as “preferentially killed”.

For the compound `CC(=O)ON(C(C)=O)c1ccc(C(=O)OC[C@]2(C)C=C3C(=O)[C@](C)(O)C4(CC4)C(C)=C3C2OC(=O)c2ccc(N(OC(C)=O)C(C)=O)cc2)cc1` (some centres unmarked) [Analog 140], in [7], the half-maximal inhibitory concentration (IC50) is above 14 µM.

Turning to `CC1=C(CSc2nc3ccccc3s2)C2=C(C)C3(CC3)[C@@](C)(O)C(=O)C2=C1` [Analog 147], the IC50 in series [8] is above 76 µM.

In the case of `CC1=C(CSc2nnnn2-c2ccc(O)cc2)C2=C(C)C3(CC3)[C@@](C)(O)C(=O)C2=C1` [Analog 154], in [8], the IC50 is above 70 µM.

Consider `CC1=C2C(=CC(C)(CO[Si](C)(C)C(C)(C)C)C2OC(=O)c2ccc(S(=O)(=O)F)cc2)C(=O)C(C)(O)C12CC2` (centres unmarked) [Analog 219], for which the IC50 in [8] and in [7] was above 52 µM each time.

With `CC1=C(CCCNC(=O)[C@H](CC(C)C)NC(=O)[C@H](CCC(N)=O)NC(=O)[C@H](CC(C)C)NC(=O)[C@H](CCCCN)NC(=O)[C@H](CO)NC(=O)[C@H](CO)NC(=O)[C@H](Cc2c[nH]cn2)NC(=O)N2CCOCC2)C2=C(C)C3(CC3)[C@@](C)(O)C(=O)C2=C1` [Analog 221] ({Morpholide-CO}-HSSKLQL-X2), the concentration for half-maximal inhibition (IC50) was above 21 µM in [8]; above 21 µM in series [9] (read-out: Mean IC50 value, MV522 Target Cell Line, 2 hr exposure, ± SD, N = 3 unless otherwise indicated); above 21 µM in series [7].

`CC1=CC2=C(C)C3(CC3)C(C)(O)C(=NO)C2=C1` (centres unmarked) [Analog 224]: the IC50 in [8] is above 200 µM; in series [7], above 130 µM. In addition, the “toxicity as monotherapeutic agent” value in series [9] (MV522 target and 8392B nontarget cell line, result in words) is on record as “minimal toxicity”.

Turning to `CCCCCCCC/C=C/CCCCCCCC(=O)OCC1=C(C)C=C2C(=O)[C@](C)(O)C3(CC3)C(C)=C21` [Analog 226], the half-maximal inhibitory concentration (IC50) in [8] and in series [7] was above 59 µM each time.

On to `CCCCCCCC/C=C/CCCCCCCC(=O)OCCCC1=C(C)C=C2C(=O)[C@](C)(O)C3(CC3)C(C)=C21` [Analog 227], for which the IC50 in series [8] is above 57 µM.

In the case of `CC1=C2C(O)C(C)(C)C3CC23C(=O)C(C)(O)C12CC2` (centres unmarked) [Analog 252], the half-maximal inhibitory concentration (IC50) in series [8] and in series [7] was above 380 µM in each case.

On to `CC1=C2C(=CC(C)(C)[C@@H]2O)C(=O)[C@](C)(O)C12CC2` [Illudin M, reference compound], for which the “preferential killing of ER positive cells” value in series [5] is “killed both ER negative and ER positive cells to the same extent”.

As for `CC[C@H](C)[C@@H]([C@@H](CC(=O)N1CCC[C@H]1[C@H](OC)[C@@H](C)C(=O)N[C@H](C)[C@@H](O)c1ccccc1)OC)N(C)C(=O)[C@@H](NC(=O)[C@@H](NC)C(C)C)C(C)C` [MMAE, monomethyl auristatin E] (H-[NMeV]V[Dil][Dolaproine]-X1), in [10] (NCI 60 cell line screen, negative = lyse tumor cells, zero = no growth, positive = slower growth), the “Activity Value” was “+21”. Also, the “MDR Activity” value in [10] is given as “No”; in series [10] (listed as MMA) it was “not MDR active”.

Broadly, the GI50 is the concentration giving 50% growth inhibition. As to `COc1cc2cc(c1Cl)N(C)C(=O)C[C@H](OC(=O)[C@H](C)N(C)C(C)=O)[C@]1(C)O[C@H]1[C@H](C)[C@@H]1C[C@@](O)(NC(=O)O1)[C@H](OC)/C=C/C=C(\C)C2` [Maytansine], the concentration for 50% growth inhibition (GI50) in series [10] (60 cell, read-out: Mean GI50 inhibition) was determined as 0.019 µM. Moreover, the “Mean LD50 cytotoxic” value in series [10] is 49,200 nM.

For `C=C1C[C@H]2C=Nc3cc(OCCCOc4cc5c(cc4OC)C(=O)N4CC(=C)C[C@H]4C=N5)c(OC)cc3C(=O)N2C1` [Pyrrolo-benzodiazepines], the “Mean LD50 cytotoxic” value in series [10] was >23,000 nM.

For the origin of these results see patent publication US12269793B2, “Affinity illudofulvene conjugates” (AF Chemicals, LLC, priority 2019, dated 2025).
